According to patent US9381193B2, “Contraceptive methods and compositions” (WASHINGTON UNIVERSITY, priority 2011, dated 2016):

Legend:
ESC-T cells = experiment: EdU incorporation proliferation assay; type: cell-based, human
Text: Other groups have shown that DHEA has anti-proliferative effects in a number of cell-lines and tissues. Thus, it was hypothesized that perhaps the PPP inhibitors prevent the proliferation of ESC-Ts and that this is an additional effect, independent of their role in decidualization inhibition. In a human uterus the stromal cells go through a cyclical oscillation between proliferation and differentiation, determined by the hormonal milieu. ESC-Ts in vitro remain in the proliferative state until they are exposed to differentiation media, which causes the cells to halt cell division and enter differentiation. Proliferation of ESC-T cells were monitored by EdU incorporation in vitro, which indicates entry into the S-phase of the cell cycle, in the absence of the differentiation hormones.
Following 60 hr of the treatment indicated in the experiment, EdU was added to the culture medium at a concentration of […]. Cells were harvested and stained using the Click-iT EdU Flow Cytometry Kit (Invitrogen). Quantitative data were collected using a BD FACSCalibur flow cytometer (Becton Dickinson, San Jose, Calif.) and analyzed with FlowJo software (TreeSTar, Inc., Ashland, Oreg.). For confocal microscopy, the cells were stained on coverslips using the same protocol. Nuclei were counterstained with TOPRO-iodide (Molecular probes) at a 1:500 dilution. Cells were mounted on slides using Vectashield (Vector Labs) and visualized using a Nikon C1 microscope.

FVB/NJ mice = experiment: Estrous cycles by vaginal smears in DHEA-fed mice; type: in vivo, mouse
Experimental: To determine the reversibility of DHEA, mice were fed the two higher DHEA diets that prevented normal estrous cycles for two weeks followed by regular rodent chow for two weeks. Estrous cycles and pregnancy rates were recorded.
Female FVB/NJ mice were obtained from Jackson Laboratories (Bar Harbor, Me., USA). Regular rodent chow was supplemented with DHEA at 0.01%, 0.1% and 0.6% w/w. Three-week-old mice had access to food and water ad libitum. Mice were fed control or DHEA-supplemented chow for two weeks. The Animal Studies Committee at Washington University School of Medicine reviewed and approved all animal experiments. Animals were maintained according to the Guide for the Care and Use of Laboratory Animals provided by the Institute for Laboratory Animal Research.
Vaginal smears were performed daily starting at eight weeks of age, after puberty, and establishment of regular estrous cycles. Vaginal cells were collected in 10 μl of phosphate buffered saline (PBS) and evaluated for stage of estrous by one investigator by light microscopy.

denuded GV oocytes = experiment: ATP and citrate levels in single denuded GV oocytes of DHEA-fed mice; type: in vivo, mouse
Text: COCs were collected following superovulation with PMSG. Ovaries were removed and placed in M2 media (Sigma, St. Louis, Mo., USA). COCs were obtained by rupture of antral follicles with a syringe and needle. To collect denuded germinal vesicle (GV) oocytes, the cumulus cells were removed by gentle pipetting. The oviducts were removed from PMSG- and hCG-primed mice. The ampulla of the oviduct was punctured to release the clutch of ovulated oocytes 24 hr after hCG.
Denuded oocytes or cultured blastocysts were frozen on a glass slide with liquid nitrogen and dried overnight at −35° C. under vacuum. Individual oocytes or blastocysts were extracted in nanoliter volume under oil. Assays were designed to measure ATP, citrate and G6PDH by linking with NAD/NADH or NADP/NADPH which are enzymatically amplified in a cycling reaction allowing products to be measured by fluorometry.

ICR female mice = experiment: Intrauterine DHEA or 6-AN pellet and pregnancy outcome; type: in vivo, mouse
Experimental: ICR female mice had either placebo (n=26), DHEA (1.5 mg/60 days)(n=20), or 6-AN pellets (150, 15, 1.5 mcg/60 days)(n=24) placed into the uterine horn after index delivery. Females were then mated and litter size was measured over the following 120 days post pellet. Mice were housed according to the Institutional Animal Care and use Committee and NIH guidelines. Day to first litter, number of litters, number of pups, average pups/litter were recorded. Serum DHEA levels were quantified (Alpco, Salem, N.H.). All pellets (placebo, DHEA, 6-AN) were custom-formulated (Innovative Research, Inc).

With C[C@]12CC[C@H](O)CC1=CC[C@@H]1[C@@H]2CC[C@]2(C)C(=O)CC[C@@H]12 [DHEA, dehydroepiandrosterone] the “EdU-positive nuclei vs DMSO control” value (ESC-T cells; 100 μM DHEA, 50 μM 6AN) was “drastic decrease”, the “Proliferation by EdU geometric mean fluorescence intensity (flow cytometry)” value (ESC-T cells; 4 independent experiments) was “decreases proliferation of ESC-Ts in a concentration dependent manner” and the Estrous cycle length (FVB/NJ mice; 0.01% DHEA diet, after two weeks) was “approximately five days longer than controls”. For the same molecule, the Estrous cycle stage (FVB/NJ mice; 0.1% DHEA and 0.6% DHEA diet) was “remained in metestrus or diestrus for the entire evaluation period”, the “Citrate, of control” value (denuded GV oocytes; 0.01% DHEA group) was 90% and the “Citrate compared to control” value (denuded GV oocytes; 0.1% DHEA group) was 83%. The “Mean serum levels of DHEA” value (ICR female mice; DHEA pellet group, controls 0.265) was 0.512 ng/mL, the Average pups/litter (ICR female mice; DHEA pellet, after 60 days, control 12.3) was 10.3 pups/litter and the “Reduction of average pups/litter size” value (ICR female mice; DHEA pellet, first litter after placement of the pellet) was 55%. The Average pups/litter (ICR female mice; DHEA pellet, first litter, control 13.0) was 5.9 pups/litter and the “Average time to first litter” value (ICR female mice; intrauterine pellet: DHEA 1.5 mg/60 days, 6-AN 150, 15, 1.5 mcg/60 days, controls 27 days) was 34 days.
